Assay results published in PubChem BioAssay AID652219 (Broad Institute, 2013).
The source made the active and inactive calls. No rule for the calls is given here.

The compounds below were run on V. cholerae SLS353 luxOD47E qrr4-GFP fluorescence (assay: Quorum LuxO inhibitors, V. cholerae SLS353 luxOD47E qrr4 GFP fluorescence, confirmatory dose response (AID 652219)).

Row | SMILES | AC50
1 | COc1ccccc1NC(=O)COC(=O)c1oc2ccccc2c1C | > 500 µM (inactive)
2 | Cc1ccc2cc3c(NC(=O)c4ccco4)nn(C)c3nc2c1 | 4 µM
3 | O=C(Cc1ccc(-c2ccccc2)cc1)NC1CCCC1 | > 500 µM (inactive)
4 | COc1ccc(Cl)cc1NC(=O)COC(=O)c1ccc(C)o1 | > 500 µM (inactive)
5 | O=c1ncn(-c2cccc(Cl)c2)c2ccccc12 | 250 µM
6 | Cc1ccc(OCCNC(=O)c2cccc(C)c2)cc1 | 100 µM (inactive)
7 | CCCn1nnnc1NCc1ccc(N(CC)CC)cc1 | > 500 µM (inactive)
8 | COc1ccccc1NC(=O)COC(=O)c1ccc(C)cc1 | > 500 µM (inactive)
9 | COc1ccccc1NC(=O)COC(=O)c1cc2c(s1)CCC2 | > 500 µM (inactive)
10 | CCC(C)NC(=O)Cc1ccc(-c2ccccc2)cc1 (stereo not given) | > 500 µM (inactive)
11 | CCCn1nnnc1NCc1ccc(C(C)C)cc1 | > 500 µM (inactive)
12 | CCCn1nnnc1NCc1ccc(N2CCCC2)cc1 | > 500 µM (inactive)
13 | CCOc1ccc(Nc2ccc3nonc3c2[N+](=O)[O-])cc1 | > 500 µM (inactive)
14 | O=C(Nc1nnc(-c2ccc3c(c2)OCCO3)o1)C1CCCCC1 | 2 µM
15 | CCn1nnnc1NCc1ccc(N2CCCC2)cc1 | > 500 µM (inactive)
